Results published in publication PMC9506414, “Novel 2,6,9-Trisubstituted Purines as Potent CDK Inhibitors Alleviating Trastuzumab-Resistance of HER2-Positive Breast Cancers” (Pharmaceuticals, 2022).

What was measured:
Test in all cases: Kinome-wide inhibition profiling
Format in all cases: biochemical
YES = target: T1, YES (Homo sapiens, UniProt P07947)
T1 construct: purchased Reaction Biology Corp
Description: (§1) In vitro CDK12/cyclinK assays for all compounds and in vitro kinome-wide inhibition profiling of 30d at 10 μM were performed by a CRO company (Reaction Biology Corp., San Diego, CA, USA).

MST3 = target: T2, MST3 (Homo sapiens, UniProt Q9Y6E0)
T2 construct: purchased Reaction Biology Corp
Description: as §1

MRCKb = target: T3, MRCKb (Homo sapiens, UniProt Q9Y5S2)
T3 construct: purchased Reaction Biology Corp
Description: as §1

RIPK5 = target: T4, RIPK5 (Homo sapiens, UniProt Q6XUX3)
T4 construct: purchased Reaction Biology Corp
Description: as §1

DCAMKL2 = target: T5, DCAMKL2 (Homo sapiens, UniProt Q8N568)
T5 construct: purchased Reaction Biology Corp
Description: as §1

TSSK3 = target: T6, TSSK3 (Homo sapiens, UniProt Q96PN8)
T6 construct: purchased Reaction Biology Corp
Description: as §1

ULK2 = target: T7, ULK2 (Homo sapiens, UniProt Q8IYT8)
T7 construct: purchased Reaction Biology Corp
Description: as §1

FGFR4 = target: T8, FGFR4 (Homo sapiens, UniProt P22455)
T8 construct: purchased Reaction Biology Corp
Description: as §1

MEK5 = target: T9, MEK5 (Homo sapiens, UniProt Q13163)
T9 construct: purchased Reaction Biology Corp
Description: as §1

CDC7/DBF4 = target: T10, CDC7/DBF4 (Homo sapiens, UniProt O00311)
T10 construct: purchased Reaction Biology Corp
Description: as §1

WNK1 = target: T11, WNK1 (Homo sapiens, UniProt Q9H4A3)
T11 construct: purchased Reaction Biology Corp
Description: as §1

EPHA2 = target: T12, EPHA2 (Homo sapiens, UniProt P29317)
T12 construct: purchased Reaction Biology Corp
Description: as §1

DDR1 = target: T13, DDR1 (Homo sapiens, UniProt Q08345)
T13 construct: purchased Reaction Biology Corp
Description: as §1

CSNK2A1 = target: T14, CSNK2A1 (Homo sapiens, UniProt P68400)
T14 construct: purchased Reaction Biology Corp
T14 sequence (P68400 whole entry): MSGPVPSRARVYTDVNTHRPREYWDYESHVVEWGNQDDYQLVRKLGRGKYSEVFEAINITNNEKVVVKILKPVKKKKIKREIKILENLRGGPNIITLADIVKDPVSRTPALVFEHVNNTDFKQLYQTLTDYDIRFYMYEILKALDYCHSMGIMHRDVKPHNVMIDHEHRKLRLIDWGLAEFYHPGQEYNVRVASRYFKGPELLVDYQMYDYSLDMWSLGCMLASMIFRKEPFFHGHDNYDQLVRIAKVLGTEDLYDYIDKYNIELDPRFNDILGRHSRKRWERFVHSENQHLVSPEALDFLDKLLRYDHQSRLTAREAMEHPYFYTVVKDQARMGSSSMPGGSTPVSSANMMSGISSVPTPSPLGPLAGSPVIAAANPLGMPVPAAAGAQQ
Description: as §1

[1] = target: T15, RPS6KA5(Kin.Dom.1-N-term) (Homo sapiens, UniProt O75582)
T15 construct: RPS6KA5(Kin.Dom.1-N-term); purchased Reaction Biology Corp
Description: as §1

JAK2 = target: T16, JAK2 (Homo sapiens, UniProt O60674)
T16 construct: purchased Reaction Biology Corp
Description: as §1

Src = target: T17, Src (Homo sapiens, UniProt P12931)
T17 construct: purchased Reaction Biology Corp
Description: as §1

AKT3 = target: T18, AKT3 (Homo sapiens, UniProt Q9Y243)
T18 construct: purchased Reaction Biology Corp
Description: as §1

SIK2 = target: T19, SIK2 (Homo sapiens, UniProt Q9H0K1)
T19 construct: purchased Reaction Biology Corp
Description: as §1

SRMS = target: T20, SRMS (Homo sapiens, UniProt Q9H3Y6)
T20 construct: purchased Reaction Biology Corp
Description: as §1

PKN1 = target: T21, PKN1 (Homo sapiens, UniProt Q16512)
T21 construct: purchased Reaction Biology Corp
Description: as §1

EPHA7 = target: T22, EPHA7 (Homo sapiens, UniProt Q15375)
T22 construct: purchased Reaction Biology Corp
Description: as §1

FES = target: T23, FES (Homo sapiens, UniProt P07332)
T23 construct: purchased Reaction Biology Corp
Description: as §1

LOK = target: T24, LOK (Homo sapiens, UniProt O94804)
T24 construct: purchased Reaction Biology Corp
Description: as §1

CDK7/cyclinH = target: T25, CDK7/cyclinH (Homo sapiens, UniProt P50613)
T25 construct: purchased Reaction Biology Corp
T25 sequence (P50613 whole entry): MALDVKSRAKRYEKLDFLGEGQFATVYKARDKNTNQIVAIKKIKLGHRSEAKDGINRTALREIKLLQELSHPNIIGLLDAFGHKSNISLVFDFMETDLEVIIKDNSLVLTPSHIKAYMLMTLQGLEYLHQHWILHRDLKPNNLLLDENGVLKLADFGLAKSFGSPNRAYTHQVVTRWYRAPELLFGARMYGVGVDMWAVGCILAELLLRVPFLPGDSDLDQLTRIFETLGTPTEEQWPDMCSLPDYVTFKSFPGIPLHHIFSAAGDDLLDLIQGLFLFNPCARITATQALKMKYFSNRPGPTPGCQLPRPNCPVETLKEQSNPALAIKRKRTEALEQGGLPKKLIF
T25 sequence (P51946 whole entry partner): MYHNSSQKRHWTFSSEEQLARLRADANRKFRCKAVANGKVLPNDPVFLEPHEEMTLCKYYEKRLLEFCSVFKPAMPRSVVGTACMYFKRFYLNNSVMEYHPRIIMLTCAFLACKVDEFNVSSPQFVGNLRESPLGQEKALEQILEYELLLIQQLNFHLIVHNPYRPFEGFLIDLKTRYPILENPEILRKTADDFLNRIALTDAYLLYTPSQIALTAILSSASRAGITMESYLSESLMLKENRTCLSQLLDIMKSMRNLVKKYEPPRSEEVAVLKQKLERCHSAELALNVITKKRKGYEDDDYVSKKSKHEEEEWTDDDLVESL
T25 sequence (P51948 whole entry partner): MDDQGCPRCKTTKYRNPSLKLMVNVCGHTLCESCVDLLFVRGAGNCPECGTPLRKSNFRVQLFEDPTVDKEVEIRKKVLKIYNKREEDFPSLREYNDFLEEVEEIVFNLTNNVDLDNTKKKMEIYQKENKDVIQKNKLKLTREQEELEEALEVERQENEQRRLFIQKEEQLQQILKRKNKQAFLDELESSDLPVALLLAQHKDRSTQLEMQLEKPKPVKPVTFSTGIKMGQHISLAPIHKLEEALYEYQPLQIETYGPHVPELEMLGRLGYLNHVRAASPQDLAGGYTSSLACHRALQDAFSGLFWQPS
Description: as §1

MNK1 = target: T26, MNK1 (Homo sapiens, UniProt Q9BUB5)
T26 construct: purchased Reaction Biology Corp
T26 sequence (Q9BUB5 whole entry): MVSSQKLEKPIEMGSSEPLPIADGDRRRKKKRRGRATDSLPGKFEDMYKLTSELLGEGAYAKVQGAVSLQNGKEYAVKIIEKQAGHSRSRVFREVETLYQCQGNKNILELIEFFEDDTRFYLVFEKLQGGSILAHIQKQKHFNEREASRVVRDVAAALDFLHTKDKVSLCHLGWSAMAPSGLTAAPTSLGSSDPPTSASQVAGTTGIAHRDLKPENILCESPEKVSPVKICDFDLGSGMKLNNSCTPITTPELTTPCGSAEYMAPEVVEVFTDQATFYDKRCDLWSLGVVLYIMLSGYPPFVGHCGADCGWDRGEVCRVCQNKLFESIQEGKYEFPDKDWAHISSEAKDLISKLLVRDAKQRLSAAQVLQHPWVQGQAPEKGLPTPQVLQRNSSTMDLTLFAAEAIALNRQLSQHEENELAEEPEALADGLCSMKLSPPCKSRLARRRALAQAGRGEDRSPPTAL
Description: as §1

PKCzeta = target: T27, PKCzeta (Homo sapiens, UniProt Q05513)
T27 construct: purchased Reaction Biology Corp
T27 sequence (Q05513 whole entry): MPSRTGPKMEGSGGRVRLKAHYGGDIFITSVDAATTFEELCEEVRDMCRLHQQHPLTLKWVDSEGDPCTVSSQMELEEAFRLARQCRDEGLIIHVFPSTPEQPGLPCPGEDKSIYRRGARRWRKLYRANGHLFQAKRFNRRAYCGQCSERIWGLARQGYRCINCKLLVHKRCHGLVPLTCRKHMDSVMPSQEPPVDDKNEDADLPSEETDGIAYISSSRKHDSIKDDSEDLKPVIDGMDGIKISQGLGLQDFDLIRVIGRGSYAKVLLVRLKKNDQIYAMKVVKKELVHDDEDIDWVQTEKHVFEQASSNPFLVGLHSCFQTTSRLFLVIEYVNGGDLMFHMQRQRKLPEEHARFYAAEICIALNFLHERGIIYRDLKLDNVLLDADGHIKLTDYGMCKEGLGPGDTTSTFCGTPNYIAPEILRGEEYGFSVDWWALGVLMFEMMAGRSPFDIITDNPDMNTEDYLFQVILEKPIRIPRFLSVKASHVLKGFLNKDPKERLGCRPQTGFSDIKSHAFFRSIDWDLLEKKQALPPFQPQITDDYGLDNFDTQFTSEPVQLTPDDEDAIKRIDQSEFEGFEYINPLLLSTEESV
Description: as §1

p70S6Kb/RPS6KB2 = target: T28, p70S6Kb/RPS6KB2 (Homo sapiens, UniProt Q9UBS0)
T28 construct: purchased Reaction Biology Corp
Description: as §1

DRAK1 = target: T29, DRAK1 (Homo sapiens, UniProt Q9UEE5)
T29 construct: purchased Reaction Biology Corp
T29 sequence (Q9UEE5 whole entry): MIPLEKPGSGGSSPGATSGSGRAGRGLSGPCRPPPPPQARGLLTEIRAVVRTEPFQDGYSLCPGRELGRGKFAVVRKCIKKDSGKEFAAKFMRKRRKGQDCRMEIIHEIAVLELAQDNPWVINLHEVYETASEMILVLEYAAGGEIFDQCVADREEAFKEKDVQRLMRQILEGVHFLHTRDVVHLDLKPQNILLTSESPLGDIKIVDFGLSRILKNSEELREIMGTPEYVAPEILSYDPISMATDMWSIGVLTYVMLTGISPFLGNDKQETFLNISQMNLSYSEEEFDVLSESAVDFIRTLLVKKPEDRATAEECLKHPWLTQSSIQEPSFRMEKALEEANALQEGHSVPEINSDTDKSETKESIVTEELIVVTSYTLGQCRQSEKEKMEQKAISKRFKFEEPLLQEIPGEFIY
Description: as §1

TEC = target: T30, TEC (Homo sapiens, UniProt P42680)
T30 construct: purchased Reaction Biology Corp
Description: as §1

PLK2 = target: T31, PLK2 (Homo sapiens, UniProt Q9NYY3)
T31 construct: purchased Reaction Biology Corp
Description: as §1

DAPK2 = target: T32, DAPK2 (Homo sapiens, UniProt Q9UIK4)
T32 construct: purchased Reaction Biology Corp
Description: as §1

MAP4K2 = target: T33, MAP4K2 (Homo sapiens, UniProt Q12851)
T33 construct: purchased Reaction Biology Corp
Description: as §1

SIK = target: T34, SIK (Homo sapiens, UniProt P57059)
T34 construct: purchased Reaction Biology Corp
T34 sequence (P57059 whole entry): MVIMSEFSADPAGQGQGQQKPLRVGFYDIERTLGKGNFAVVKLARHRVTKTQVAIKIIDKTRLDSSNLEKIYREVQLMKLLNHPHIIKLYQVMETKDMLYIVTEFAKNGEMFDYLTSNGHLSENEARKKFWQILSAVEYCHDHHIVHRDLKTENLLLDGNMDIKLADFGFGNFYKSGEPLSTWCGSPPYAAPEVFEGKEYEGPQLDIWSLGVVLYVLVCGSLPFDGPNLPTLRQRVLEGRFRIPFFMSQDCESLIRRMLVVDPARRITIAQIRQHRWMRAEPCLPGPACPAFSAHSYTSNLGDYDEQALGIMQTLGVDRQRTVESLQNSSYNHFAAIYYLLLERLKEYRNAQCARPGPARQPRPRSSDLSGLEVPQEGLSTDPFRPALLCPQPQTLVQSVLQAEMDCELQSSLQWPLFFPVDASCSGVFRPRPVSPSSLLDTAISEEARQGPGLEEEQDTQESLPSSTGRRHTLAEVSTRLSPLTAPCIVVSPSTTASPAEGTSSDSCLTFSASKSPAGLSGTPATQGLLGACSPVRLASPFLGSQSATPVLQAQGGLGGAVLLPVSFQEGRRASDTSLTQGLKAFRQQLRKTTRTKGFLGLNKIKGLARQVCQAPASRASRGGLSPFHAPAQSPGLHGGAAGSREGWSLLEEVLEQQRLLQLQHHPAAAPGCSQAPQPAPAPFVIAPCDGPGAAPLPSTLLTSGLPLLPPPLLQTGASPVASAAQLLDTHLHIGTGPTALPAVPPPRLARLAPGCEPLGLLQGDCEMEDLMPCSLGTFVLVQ
Description: as §1

CAMKK2 = target: T35, CAMKK2 (Homo sapiens, UniProt Q96RR4)
T35 construct: purchased Reaction Biology Corp
T35 sequence (Q96RR4 whole entry): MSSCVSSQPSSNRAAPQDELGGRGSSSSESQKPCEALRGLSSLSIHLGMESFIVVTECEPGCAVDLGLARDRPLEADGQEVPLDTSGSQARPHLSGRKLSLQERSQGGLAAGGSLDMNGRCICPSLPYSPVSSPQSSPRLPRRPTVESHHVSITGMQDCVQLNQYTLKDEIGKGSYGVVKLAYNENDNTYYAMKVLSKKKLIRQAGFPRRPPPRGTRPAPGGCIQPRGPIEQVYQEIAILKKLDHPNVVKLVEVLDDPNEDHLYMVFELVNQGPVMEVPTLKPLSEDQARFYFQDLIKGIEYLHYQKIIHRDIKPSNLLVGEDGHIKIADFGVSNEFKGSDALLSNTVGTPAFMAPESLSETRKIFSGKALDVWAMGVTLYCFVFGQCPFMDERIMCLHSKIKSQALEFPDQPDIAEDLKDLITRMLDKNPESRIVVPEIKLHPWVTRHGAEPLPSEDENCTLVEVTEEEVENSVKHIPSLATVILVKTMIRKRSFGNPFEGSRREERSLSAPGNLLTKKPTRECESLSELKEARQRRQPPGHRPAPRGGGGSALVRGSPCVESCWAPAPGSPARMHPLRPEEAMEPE
Description: as §1

RIPK2 = target: T36, RIPK2 (Homo sapiens, UniProt O43353)
T36 construct: purchased Reaction Biology Corp
T36 sequence (O43353 whole entry): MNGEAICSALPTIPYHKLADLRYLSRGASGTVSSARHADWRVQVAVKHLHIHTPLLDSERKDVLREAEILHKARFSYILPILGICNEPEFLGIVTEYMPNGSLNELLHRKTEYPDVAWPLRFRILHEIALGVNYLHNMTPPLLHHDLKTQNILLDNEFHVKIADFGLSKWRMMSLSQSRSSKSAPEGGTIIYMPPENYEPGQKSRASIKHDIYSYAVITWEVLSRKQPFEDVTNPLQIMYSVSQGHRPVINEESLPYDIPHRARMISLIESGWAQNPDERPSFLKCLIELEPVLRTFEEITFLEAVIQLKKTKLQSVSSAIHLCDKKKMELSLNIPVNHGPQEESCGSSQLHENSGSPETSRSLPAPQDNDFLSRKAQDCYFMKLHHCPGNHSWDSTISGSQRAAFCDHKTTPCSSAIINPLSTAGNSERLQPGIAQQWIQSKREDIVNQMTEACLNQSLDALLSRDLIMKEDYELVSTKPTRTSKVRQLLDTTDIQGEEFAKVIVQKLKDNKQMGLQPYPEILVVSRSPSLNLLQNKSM
Description: as §1

EPHB1 = target: T37, EPHB1 (Homo sapiens, UniProt P54762)
T37 construct: purchased Reaction Biology Corp
Description: as §1

PIM1 = target: T38, PIM1 (Homo sapiens, UniProt P11309)
T38 construct: purchased Reaction Biology Corp
Description: as §1

NEK5 = target: T39, NEK5 (Homo sapiens, UniProt Q6P3R8)
T39 construct: purchased Reaction Biology Corp
Description: as §1

KSR2 = target: T40, KSR2 (Homo sapiens, UniProt Q6VAB6)
T40 construct: purchased Reaction Biology Corp
Description: as §1

ABL2 = target: T41, ABL2 (Homo sapiens, UniProt P42684)
T41 construct: purchased Reaction Biology Corp
Description: as §1

MEKK6 = target: T42, MEKK6 (Homo sapiens, UniProt O95382)
T42 construct: purchased Reaction Biology Corp
Description: as §1

MARK2 = target: T43, MARK2 (Homo sapiens, UniProt Q7KZI7)
T43 construct: purchased Reaction Biology Corp
Description: as §1

`CCn1cnc2c(NCc3ccc(-c4ccccn4)nc3)nc(-c3ccc(N)nc3)nc21` [Compound 30d, N-([2,2′-Bipyridin]-5-ylmethyl)-2-(6-aminopyridin-3-yl)-9-ethyl-9H-purin-6-amine] gave a remaining activity at 10 µM (YES) of 20.6%, a remaining activity at 10 µM (MST3) of 47% and a remaining activity at 10 µM (MRCKb) of 99.3%. The remaining activity at 10 µM (RIPK5) was 67.8%, the remaining activity at 10 µM (DCAMKL2) was 55% and the remaining activity at 10 µM (TSSK3) was 91.5%. For the same compound, the remaining activity at 10 µM (ULK2) was 87.3%, the remaining activity at 10 µM (FGFR4) was 87.4% and the remaining activity at 10 µM (MEK5) was 84.1%. The remaining activity at 10 µM (CDC7/DBF4) was 98.2%, the remaining activity at 10 µM (WNK1) was 82.5% and the remaining activity at 10 µM (EPHA2) was 42.3%. For the same compound, the remaining activity at 10 µM (DDR1) was 50.2%, the remaining activity at 10 µM (CSNK2A1) was 84.2% and the remaining activity at 10 µM [1] was 80.5%. The remaining activity at 10 µM (JAK2) was 87%, the remaining activity at 10 µM (Src) was 60.1% and the remaining activity at 10 µM (AKT3) was 96.1%. For the same compound, the remaining activity at 10 µM (SIK2) was 35.9%, the remaining activity at 10 µM (SRMS) was 96.8% and the remaining activity at 10 µM (PKN1) was 85.4%. It also gave a remaining activity at 10 µM (EPHA7) of 31.3%, a remaining activity at 10 µM (FES) of 6.4% and a remaining activity at 10 µM (LOK) of 41.4%. For the same compound, the inhibition at 10 µM (CDK7/cyclinH) was over 95%, the remaining activity at 10 µM (CDK7/cyclinH) was 3.8% and the remaining activity at 10 µM (MNK1) was 89.3%. The remaining activity at 10 µM (PKCzeta) was 90.2%, the remaining activity at 10 µM (p70S6Kb/RPS6KB2) was 92.2% and the remaining activity at 10 µM (DRAK1) was 79.3%. For the same compound, the remaining activity at 10 µM (TEC) was 71.5%, the remaining activity at 10 µM (PLK2) was 107% and the remaining activity at 10 µM (DAPK2) was 85.7%. The remaining activity at 10 µM (MAP4K2) was 58.4%, the remaining activity at 10 µM (SIK) was 56.3% and the remaining activity at 10 µM (CAMKK2) was 10.6%. It also gave a remaining activity at 10 µM (RIPK2) of 66.1%, a remaining activity at 10 µM (EPHB1) of 13.6% and a remaining activity at 10 µM (PIM1) of 97.8%. For the same compound, the remaining activity at 10 µM (NEK5) was 83.8%, the remaining activity at 10 µM (KSR2) was 88.4% and the remaining activity at 10 µM (ABL2) was 56.1%. The remaining activity at 10 µM (MEKK6) was 109% and the remaining activity at 10 µM (MARK2) was 74.3%.
